Experimental data published in patent publication US11510407B2, “Compositions and methods for reducing ice crystal formation” (X-THERMA, INC., priority 2015, dated 2022).
“Also recorded” adds a separate entry of the source.

What was measured:
[1] = Crystallographic x-ray diffraction (XRD) ice crystal formation assay; type: physicochemical; settings: for reduction of necessary EG concentration while preventing ice formation (ice ring scores, FIG. 3D): 1 and 5 mg/mL compound, EG 15% to 30% (v/v)
Procedure: In order to increase the throughput of library analysis, a crystallographic x-ray diffraction (XRD) technique was used to evaluate ice crystal formation. For these experiments, the compounds named “Compound 2,” “Compound 8,” “Compound 10,” “Compound 11,” “Compound 12,” “Compound 13,” and “Compound 58” were tested. Compound 58 is similar to Compound 12, except that an arginine amino acid has been appended to the N-terminal end.
For these experiments, EG concentrations between 15% and 30% (v/v) were used. Typically, EG, DMSO, and other cryoprotectants are used during XRD sample analysis at concentrations of 35-40% (v/v) to vitrify solutions and avoid diffraction interference from ice crystals. Concentrations of 1 and 5 mg/mL of the peptoid and peptoid-peptide compounds were used. […] FIG. 3D provides ice rings scores for a variety of EG concentrations and two concentrations of Compounds 2, 8, and 12.
“IceRing1” and “IceRing2” refer to ice formation scores, which range between 0 (no ice formation) and 15 (large ice formation).
The sample containing Compound 12 at a concentration of 5 mg/mL (0.5% (w/v)) and EG at a concentration of 17.5% (v/v) in water was ice-free after flash freezing. […] In the figures, black spots and rings represent ice crystals.

[2] = Larger volume flash freeze / rewarm / −20° C. storage assay; type: physicochemical
Procedure: In order to test the usefulness of compositions of the present invention at larger scales, experiments were performed using solution volumes that are similar to volumes used for standard egg and stem cell preservation. For these experiments, two samples, one containing 22.5% EG and buffer only, and another containing 22.5% EG and 5 mg/ml (0.5% w/v) of Compound 12 and buffer, were flash frozen in liquid nitrogen. […] The rewarming of the solutions in a 37° C. water bath led to an unexpected and beneficial result. The Compound 12 solution bypassed devitrification in less than 2 seconds upon rewarming (FIG. 6B, right), whereas chunks of ice were seen floating in the control sample (FIG. 6B, left) after 20 seconds. Condensation was seen on each of the tubes because the tubes were actually still much below room temperature.

HEK 293 cells = experiment: Cryopreservation assay (flash freeze-thaw, Calcein AM viability); type: cell-based, human
Procedure: Initial cryopreservation assays were performed using very simple solutions, with and without the addition of Compound 12, in order to minimize confounding outside factors. For this first set of experiments, two sample solutions were prepared. The first sample solution contained simple buffer and ethylene glycol (EG) at a concentration of 22.5% (v/v), and the second sample solution contained simple buffer, EG (22.5% (v/v)), and 5 mg/mL (0.5% (w/v)) of Compound 12.
HEK 293 cells were grown until 70% confluent, then treated with trypsin to remove adhesion proteins and yield free floating cells. Cells were counted using a hemocytometer and sample cell concentrations were adjusted to final concentrations of 10,000 cells per microliter. Cells were then compressed into tight pellets by centrifugation, and each sample was subsequently mixed with 20 μL of one of the sample solutions. Samples were then flash frozen by immersion in liquid nitrogen, followed by rewarming in a 37° C. water bath. After the freeze-thaw process, cells were suspended in a 400× volume of culture media for recovery. The positive control sample was treated with culture media at 37° C. and not subjected to the freeze-thaw process. The negative control sample was treated with culture media only during the freeze-thaw process. After recovery, cells were stained with Calcein AM for 30 minutes and cell viability was measured using a fluorescence plate reader.
A second set of experiments was performed to evaluate the cryopreservation potential of a formulation that contained 5 mg/mL of Compound 12 plus a mixture of glycols, disaccharides, and a general buffer. Post-thaw survival following vitrification in liquid nitrogen was evaluated as described above.

HEK 293 cell line = experiment: Cytotoxicity assay (MTT); type: cell-based, human
Procedure: A Tecan Genesis Robotic Workstation was used to prepare solutions in 96- and 384-well plates. Solutions contained culture media, buffers, a cryoprotectant composition of the present invention (Compound 12) or DMSO. Solutions were adjusted to the desired pH. Serial dilutions were performed to obtain solutions containing various concentrations of Compound 12 and DMSO. Control experiments were performed using only culture media.
For these experiments, cells were seeded at low density (i.e., 10% confluence), exposed to solutions containing Compound 12 or DMSO, and placed in a 37° C. incubator. The cells were allowed to grow until control cells that were treated only with empty vehicle approached 70% confluence (typically about 3 to 5 days). Assessment for compound cytotoxicity was via MTT assay.

[3] = 160 mM ethylene glycol in MilliQ water, slow cooled, −20° C., one hour
Procedure: In this experiment, four water-based samples were prepared in capillary tubes containing MilliQ purified water. One sample contained only water, and another sample contained 160 mM ethylene glycol (EG). The other two samples each contained a peptoid polymer at 9 mM. One of the peptoid polymer samples contained the peptoid polymer called “Compound 1,” while the other sample contained the peptoid polymer called “Compound 10.” The sequences of the peptoid polymers are as follows:
After sample preparation, all samples were slow cooled and incubated at −20° C. on a Peltier cooled plate. After one hour, samples were removed and immediately photographed using a digital camera attached to a 180× Stereo Zoom microscope (FIG. 2A).

[4] = buffer + EG 22.5% (v/v) + 5 mg/mL Compound 12 with HEK 293 cells

With `CCC(C)NCC(=O)N(CC(=O)N(CC(=O)N(CC(=O)N(CC(=O)N(CC(=O)N(CC(=O)N(CC(=O)N(CC(=O)N(CC(N)=O)CC(C)O)C(C)CC)C(C)CC)C(C)CC)CC(C)O)CC(C)O)CC(C)O)C(C)CC)C(C)CC` (stereo not drawn) [Compound 2, Nsb-Nsb-Nsb-Nhp-Nhp-Nhp-Nsb-Nsb-Nsb-Nhp] the “reduction of necessary EG concentration while preventing ice formation (ice ring scores, FIG. 3D)” value (“reduction” below) [1] was “significantly reduced necessary EG concentrations while preventing ice formation”.

With `CCC(C)NCC(=O)N(CC(=O)N(CC(=O)N(CC(=O)N(CC(=O)N(CC(=O)N(CC(=O)N(CC(=O)N(CC(=O)N(CC(N)=O)CC(C)O)CC(C)O)CC(C)O)C(C)CC)CC(C)O)CC(C)O)CC(C)O)CC(C)O)CC(C)O` (stereo not drawn) [Compound 8, Nsb-Nhp-Nhp-Nhp-Nhp-Nhp-Nsb-Nhp-Nhp-Nhp] the “reduction” value [1] was “significantly reduced necessary EG concentrations while preventing ice formation”.

With `CCC(C)NCC(=O)N(CC(=O)N(CC(=O)N(CC(=O)N(CC(=O)N(CC(=O)N(CC(=O)N(CC(=O)N(CC(=O)N(CC(N)=O)C(C)CC)C(C)CC)CC(C)O)CC(C)O)C(C)CC)C(C)CC)CC(C)O)CC(C)O)C(C)CC` (stereo not drawn) [Compound 12, Nsb-Nsb-Nhp-Nhp-Nsb-Nsb-Nhp-Nhp-Nsb-Nsb] the “vitrification / ice formation on flash freezing in liquid nitrogen” value ([2]; 22.5% EG + 5 mg/ml (0.5% w/v) Compound 12 + buffer, −196° C.) was “complete vitrification with no ice formation; also recorded: able to vitrify; also recorded: vitrified”, the “time to bypass devitrification upon rewarming” value ([2]; 22.5% EG + 5 mg/ml Compound 12, 37° C. water bath) was “less than 2 seconds” and the “state after overnight in −20° C. freezer” value ([2]; 22.5% EG + 5 mg/ml Compound 12, 100 μL samples) was “completely unfrozen; also recorded: remained unfrozen”. The “behaviour during rewarming / thawing” value ([2]; 22.5% EG + 5 mg/ml Compound 12, rewarming at 37° C.) was “active de-icer during thawing; also recorded: unfroze (within two seconds)”, the “cell survival after freeze-thaw versus EG alone (FIG. 8)” value (HEK 293 cells; HEK 293, buffer + EG 22.5% (v/v) + 5 mg/mL Compound 12, liquid nitrogen, viability 12 hours post-thaw) was “greatly improved cell survival” and the “cryopreservation compared to VS2E and M22” value (HEK 293 cells; HEK 293, formulation containing 5 mg/mL Compound 12) was “superior cryopreservation”. The “post-thaw survival of the cells” value (HEK 293 cells; HEK 293, formulation with 5 mg/mL Compound 12 plus mixture of glycols, disaccharides, general buffer, vitrified in liquid nitrogen, 16 hours post-thaw) was 98%, the “devitrification on rewarming compared to sample lacking Compound 12” value (HEK 293 cells; [4]) was “bypassed much more rapidly” and the “vitrification during the freezing process” value (HEK 293 cells; [4]) was “complete vitrification without ice formation”. The “toxicity (MTT assay)” value (HEK 293 cell line; HEK 293, at 0.5% w/v) was “did not show toxicity”, the “toxicity (MTT assay)” value (HEK 293 cell line; HEK 293, at concentrations four times greater than 0.5% w/v) was “did not show significant toxicity” and the “toxicity compared with culture media alone (MTT assay)” value (HEK 293 cell line; HEK 293, serial dilutions, 37° C., about 3 to 5 days) was “did not significantly deviate from the that of culture media alone”. For the same compound, the “reduction” value [1] was “significantly reduced necessary EG concentrations while preventing ice formation”, the “ice formation after flash freezing (XRD, FIG. 3A)” value ([1]; Compound 12 5 mg/mL (0.5% (w/v)) + EG 17.5% (v/v) in water, stream of liquid nitrogen vapor) was “complete vitrification; also recorded: ice-free; also recorded: completely eliminate all ice formation” and the “anti-icing effect in comparison to EG at the same molar concentration” value ([1]; Compound 12 5 mg/mL + EG 17.5% (v/v)) was 500 times.

For `C[S+](C)[O-]` [DMSO, dimethyl sulfoxide, reference compound], the “concentration above which warm survival for an extended period of time was not allowed” value (HEK 293 cell line; HEK 293, MTT assay) was “above 0.5 % (v/v)”.

In the case of `OCCO` [EG, ethylene glycol, reference compound], the ice crystal formation [3] is reported as “significant ice crystal formation” and the “ice formation after flash freezing (XRD, FIG. 3B)” value ([1]; 30% (v/v) EG alone) is reported as “partial vitrification with the presence of cubic ice”.
